Laboratory results: patent US20090291915A1, “Silicon Compounds and Their Use” (priority 2001, published 2009)

- melting point: 80 to 82 °C
SMILES: COc1nc(NCCCN2CCOCC2)nc(OC)c1NC(=O)c1ccc(Oc2cncc([Si](C)(C)C)c2)o1
